Consider five compounds from ChEMBL document CHEMBL1201862, “PubChem BioAssay data set” (2004).

Active and inactive are the calls of the source. Bounds are passed on as bounds.

Experiment [1] addresses T1, Bcl-2-like protein 10 (Homo sapiens, UniProt Q9HD36).
T1 sequence (Q9HD36 whole entry): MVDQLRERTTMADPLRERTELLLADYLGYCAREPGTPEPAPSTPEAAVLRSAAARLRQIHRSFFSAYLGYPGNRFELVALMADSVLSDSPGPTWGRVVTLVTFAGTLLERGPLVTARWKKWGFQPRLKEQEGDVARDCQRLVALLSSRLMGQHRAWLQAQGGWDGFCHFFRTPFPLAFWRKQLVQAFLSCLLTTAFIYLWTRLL
The experiment in a line: Biochemical TR3 FP assay of Bcl-B inhibitor potency, EC50 (AID 1243). In kind it is functional.

Experiment [2] in a line: insulin promoter down-regulators in MIN6 cells, imaging, high-content screening, mouse beta cells (AID 1628). In kind it is functional.
In experiment [3] the test system is Streptococcus sp. 'group A'. The experiment in a line: growth inhibition of control SK(-) GAS strain, dose response, counter-screen for streptokinase expression inhibitor project, luminescence, kanamycin, BacTiterGlo, confirmation (AID 1900). Format: functional, organism-based. On the technique in general: The purpose of a counterscreen is to sort out artefacts and off-target activity.

Experiment [4] in a line: cytotoxicity in MIN6 insulinoma cells, dose response, cytotoxicity control, cell-based, mouse insulinoma (AID 2122).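 Note: confirmatory high-throughput counterscreen run to flag cytotoxic compounds; mouse MIN-6 beta cells carrying an insulin promoter eGFP reporter.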 Format: functional.
Experiment [5] is described as follows: inhibitors of intracellular T. cruzi replication, confirmation, NIH3T3 host cells, beta-gal luminescence (AID 2044).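 Note: intracellular parasites grown in NIH/3T3 mouse fibroblasts as host cells; luminescent beta-galactosidase reporter signal from transgenic T. cruzi replicating inside host cells; inhibitors lower the luminescence signal.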 In kind it is functional, cell-based.
Experiment [6] addresses T2, Galanin receptor type 2 (Homo sapiens, UniProt O43603).
T2 sequence (O43603 whole entry): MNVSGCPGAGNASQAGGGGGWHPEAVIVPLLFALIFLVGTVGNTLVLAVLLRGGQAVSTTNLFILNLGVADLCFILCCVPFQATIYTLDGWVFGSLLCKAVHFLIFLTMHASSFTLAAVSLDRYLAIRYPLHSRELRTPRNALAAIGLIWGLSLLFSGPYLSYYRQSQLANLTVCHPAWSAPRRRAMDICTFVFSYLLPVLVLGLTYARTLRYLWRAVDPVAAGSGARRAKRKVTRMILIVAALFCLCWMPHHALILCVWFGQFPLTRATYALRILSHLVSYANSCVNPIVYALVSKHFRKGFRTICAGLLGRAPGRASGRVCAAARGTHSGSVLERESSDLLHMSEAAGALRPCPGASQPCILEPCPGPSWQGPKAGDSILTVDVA
The experiment in a line: Dose Response cell-based high-throughput screening assay to identify agonists of galanin receptor 2 (GALR2). [Related pubchem assays: 864 ]. In kind it is functional.

Experiment [7] in a line: cytotoxicity toward NIH3T3 fibroblasts, dose response, counter-screen, cell-based, ATP luminescence, mouse fibroblasts (AID 2010).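 Note: cells exposed to compound for about 90 hours before reading.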 In kind it is functional.
Experiment [8] concerns Streptococcus. The experiment in a line: Group A Streptococcus viability loss, dose response, counter-screen for streptokinase expression inhibitor project, luminescence, BacTiterGlo (AID 1915).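 Note: potency for reduction of bacterial viability or growth.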 In kind it is functional, organism-based.
The test system of experiment [9] is INS1. The experiment can be described thus: beta cell apoptosis inhibitors, cytokine rescue, dose response, luminescence, retest (AID 449756).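 Note: cell death triggered by IL-1 beta plus TNF-alpha plus IFN-gamma mixture; protective hits raise ATP signal compared with cytokine alone wells.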 In kind it is functional, cell-based. The settings on record: Rattus norvegicus.
A short description of experiment [10]: Shn3 3'UTR reporter inhibitors, dose response, cell-based, Clone20 osteoblasts, firefly luciferase, cherry-picked (AID 624132).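 Note: firefly luciferase luminescence from reporter carrying the Shn3 3'UTR in osteoblasts.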 Format: functional.
Experiment [11] in a line: HepG2 cell cytotoxicity, dose response, cytotoxicity control for Shn3 inhibitor project, CellTiter-Glo, cherry-picked (AID 624134). Format: functional, cell-based.
Experiment [12] is described as follows: control 3'UTR Renilla luciferase suppression, dose response, counter-screen for Shn3 inhibitor project, cell-based, Clone20-Shn3RL, cherry-picked (AID 624133). In kind it is functional.
The target of experiment [13] is Inward rectifier potassium channel 2 (Mus musculus, UniProt P35561). The experiment can be described thus: Manual electrophysiological patch clamp assay for SAR compounds that inhibit/block inward-rectifying potassium ion channel Kir2.1. [Related pubchem assays: 1843 (Summary assay for Kir2.1 inhibitor assays.), 1672 (Primary HTS of 305616 compounds where 2592 were identified as active.)]. In kind it is functional.

A short description of experiment [14]: enhancers of respiration in Yfh1-depleted yeast, dose response, Friedreich's ataxia, plus single-dose screen (AID 1465).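 Note: yeast depleted of Yfh1p frataxin homolog grown on glycerol needing respiration; WST-1 tetrazolium dye reduction as measure of cellular dehydrogenase metabolic activity.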 In kind it is functional.
Experiment [15] concerns the target T3, Streptokinase A (Streptococcus pyogenes serotype M1, UniProt P10520).
T3 sequence (P10520 whole entry): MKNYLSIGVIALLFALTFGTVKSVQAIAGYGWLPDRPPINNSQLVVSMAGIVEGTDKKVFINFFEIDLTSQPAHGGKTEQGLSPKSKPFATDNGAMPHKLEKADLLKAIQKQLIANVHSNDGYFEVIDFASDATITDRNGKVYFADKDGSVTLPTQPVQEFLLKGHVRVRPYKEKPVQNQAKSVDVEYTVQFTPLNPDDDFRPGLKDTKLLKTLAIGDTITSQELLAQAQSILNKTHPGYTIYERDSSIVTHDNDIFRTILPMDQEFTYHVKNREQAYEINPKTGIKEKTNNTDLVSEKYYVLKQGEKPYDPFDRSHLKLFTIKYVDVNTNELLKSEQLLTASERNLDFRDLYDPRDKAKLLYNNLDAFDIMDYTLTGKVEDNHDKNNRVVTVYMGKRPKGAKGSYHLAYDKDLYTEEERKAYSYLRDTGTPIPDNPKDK
The experiment in a line: Absorbance Microorganism-Based Dose Response Follow up to Identify Inhibitors of Streptokinase Expression. [Related pubchem assays: 1677 (Project Summary), 1915, 1914, 1902 (Retest at Dose), 1900 (Counter Screen), 1662 (Primary HTS)]. In kind it is functional, Streptococcus pyogenes M1 GAS.

The subject of experiment [16] is Streptococcus. The experiment can be described thus: Streptococcus pyogenes growth inhibition counter-screen, dose response, counter-screen for streptokinase expression inhibitor project, luminescence, BacTiter-Glo, strain UMAA2166 (AID 2477). Format: functional, organism-based.

Sequence of Inward rectifier potassium channel 2 (P35561 whole entry): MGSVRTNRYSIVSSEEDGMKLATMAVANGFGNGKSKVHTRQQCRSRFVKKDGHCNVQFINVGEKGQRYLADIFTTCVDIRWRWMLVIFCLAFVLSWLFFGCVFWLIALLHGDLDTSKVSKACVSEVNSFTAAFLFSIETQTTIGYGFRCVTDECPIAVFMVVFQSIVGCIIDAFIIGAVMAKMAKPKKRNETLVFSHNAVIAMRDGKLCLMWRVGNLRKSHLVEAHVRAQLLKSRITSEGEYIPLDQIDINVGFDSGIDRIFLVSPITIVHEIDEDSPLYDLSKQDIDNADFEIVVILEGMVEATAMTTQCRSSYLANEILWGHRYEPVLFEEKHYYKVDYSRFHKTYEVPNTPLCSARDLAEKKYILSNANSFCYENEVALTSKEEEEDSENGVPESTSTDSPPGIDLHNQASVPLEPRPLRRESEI

Consider `Cc1ccc2oc3cc(NCCCN(C)C)c4c(=O)c5ccccc5c(=O)c4c3[nH]c2c1`, for which, in [1], the concentration giving a half-maximal response (EC50) was 670 nM (active).
With `Cc1cc(C)c2nc(NNC(=O)c3ccc(S(=O)(=O)N4CC(C)CC(C)C4)cc3)sc2c1` (stereo unspecified), the figures for the half-maximal inhibitory concentration (IC50) in experiment [2] and in experiment [4] were 4.16 µM (active) and 3.68 µM (active), respectively. Moreover, the concentration for a half-maximal effect (EC50) in experiment [3] is 697 nM (active); in [5], 1.35 µM (active); in [6], > 55.7 µM (not active); in experiment [7] it was 3.39 µM (active); in experiment [8] it was 2.55 µM (active). Besides, the half-maximal activity concentration (AC50) is 1.96 µM (active) in experiment [9], 2.28 µM (active) in [10], 7.56 µM (active) in [11] and 2.1 µM (active) in [12].
In the case of `COc1ccc(CNCc2cccc(Cl)c2)cc1`, the IC50 in [13] was 1.12 µM (active).
For the compound `COc1ccc(C2(c3ccc(O)cc3O)CC(c3ccccc3Cl)N=C(S)N2)cc1` (stereo unspecified), the EC50 in experiment [14] is > 100 µM (active).
Regarding `COc1ccc(-c2nc(OC)c3ccccc3n2)cc1`, the EC50 in experiment [15] was 63.2 µM (active); in experiment [16], > 500 µM (not active).

The term EC50 denotes the concentration at which the effect is half-maximal. For orientation: IC50 means the midpoint of a concentration-inhibition curve. For orientation: AC50 means the concentration at which the activity in the assay is half-maximal.
